# Results: US4996212A, “Antiinflammatory and anti-hyperproliferative compounds” (Schering Corporation, priority 1989, dated 1991)
# Key:
# [1] = target: T1, 5-lipoxygenase (Rattus norvegicus, UniProt P12527); assay: 5-lipoxygenase activity / arachidonic acid metabolism in rat neutrophils; assay type: cell-based; conditions: compound concentration 5×^10-5 Molar, [14C] arachidonic acid
# T1 construct: at 3-12×10^7 intact neutrophils per ml; endogenous in cells; host or cells: neutrophils from the pleural exudate of male Wistar-Lewis rats (reversed passive Arthus reaction)
# T1 sequence (P12527 1-673): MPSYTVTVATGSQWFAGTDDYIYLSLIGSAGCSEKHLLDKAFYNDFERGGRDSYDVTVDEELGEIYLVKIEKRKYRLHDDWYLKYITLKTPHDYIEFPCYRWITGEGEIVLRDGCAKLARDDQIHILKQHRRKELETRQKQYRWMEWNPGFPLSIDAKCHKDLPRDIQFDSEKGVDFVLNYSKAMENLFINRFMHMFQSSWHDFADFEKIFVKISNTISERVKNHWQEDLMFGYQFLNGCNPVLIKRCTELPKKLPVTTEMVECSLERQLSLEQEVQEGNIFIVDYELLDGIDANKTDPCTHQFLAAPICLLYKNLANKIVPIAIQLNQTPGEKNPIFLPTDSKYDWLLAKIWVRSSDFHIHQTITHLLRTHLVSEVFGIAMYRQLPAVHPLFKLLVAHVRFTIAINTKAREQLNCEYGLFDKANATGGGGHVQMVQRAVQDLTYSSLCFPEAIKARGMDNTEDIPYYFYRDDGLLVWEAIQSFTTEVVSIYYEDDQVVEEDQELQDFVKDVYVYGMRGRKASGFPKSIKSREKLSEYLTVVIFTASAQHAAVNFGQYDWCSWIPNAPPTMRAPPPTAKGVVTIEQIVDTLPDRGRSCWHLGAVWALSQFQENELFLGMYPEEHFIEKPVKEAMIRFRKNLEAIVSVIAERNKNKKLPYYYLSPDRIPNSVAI
# Method: The effect of the compounds of the invention on 5-lipoxygenase activity is determined using rat neutrophils. Male Wistar-Lewis rats are injected intravenously with 5 mg BSA in 0.2 ml pyrogen free saline followed by an intrapleural injection of 500 ug of the IgG fraction of rabbit anti-BSA (Cappel Labs., Lot 17782) in 0.2 ml pyrogen free saline. Injections are made under light ether anesthesia. Four hours later, the pleural cavity exudate consisting of 85 to 95% neutrophils is removed. Neutrophils are isolated from the pleural exudates by centrifugation of 4° C. for 10 min at 200×g. The cell pellet is resuspended in 17 mM Tris HCl buffer, pH 7.2, containing 0.75% NH4 Cl to lyse contaminating erythrocytes followed by centrifugation at 4° C. for 5 min at 200×g. The pelleted neutrophils are rewashed in 50 mM Tris HCl, pH 7.4, containing 100 mM NaCl, followed by the same centrifugation. The cell pellet is resuspended in 50 mM Tris HCl, pH 7.4, containing 100 mM NaCl and 1 mM CaCl2, at 3-12×10^7 intact neutrophils per ml.
# Solutions of compounds in methanol are dried, then resuspended in the cell suspension for 4 min. Arachidonic acid metabolism is determined by incubating 0.1 ml of this suspension with 40 uM [×^14 C] arachidonic acid (AA) (Amersham, 59 Ci/mole), in the presence of 0.1% BRIJ 56 and 10 uM A23187. Arachidonic acid metabolism as well as the various drug and reagent abbreviations are described in detail in Arch. Dermatol, Vol. 119, pages 541 to 547 (July 1983), the teachings of which are incorporated herein by reference. Assays run in triplicate are initiated by adding cells with inhibitor to a film of the BRIJ 56, arachidonic acid and A23187 at 37° C. After one minute, reactions are terminated by the addition of 2.4 ml of a chloroform:methanol (1:1 v/v) mixture and 0.9 ml of 0.1% formic acid. […] Products, leukotriene B4 (LTB4), 12-hydroxy heptadecatrienoic acid (HHT) and 5-hydroxy icosatetraenoic acid (5-HETE), are located by autoradiography and appropriate regions of the thin layer plates are scraped and counted in a liquid scintillation counter. […]
# [2] = tested on: Male Lewis inbred albino rats; assay: Reversed Passive Arthus Reaction (RPAR), paw volume; assay type: in vivo; conditions: po, rat paw RPAR
# Method: Reversed Passive Arthus Reaction (RPAR) Animals, Materials and Methods
# Male Lewis inbred albino rats weighing 180-220 grams obtained from Charles River Breeding Laboratories are used in these experiments. The rats are housed 3 animals/cage and food and water are allowed ad libitum.
# The animals are numbered 1-3 in each cage and color marked for identification purposes.
# All reagents and drugs are prepared just prior to the study. Crystallized and lyophilized bovine serum albumin (BSA), obtained from Sigma Chemical Company, is solubilized without shaking in cold sterile pyrogen free saline (10 mg/ml). Lyophilized anti-bovine serum albumin (IgG Fraction), obtained from Cappel Laboratories, is suspended in sterile distilled water and diluted with cold pyrogen free saline (PFS) just prior to use. The final concentration of anti-bovine serum albumin is 0.5 mg/ml of PFS. Both BSA and anti-BSA solutions are iced during use. Drugs are suspended or solubilized in an aqueous solution of methyl cellulose (MC) with a homogenizer just prior to administration.
# Groups of animals (6/group) are dosed with drug in MC by gavage one hour prior to sensitization with BSA. […] The volume of mercury displaced is converted to weight and recorded. […] Paw volumes are also recorded with a plethysmograph during the development of the inflammation at 2 and 4 hours post-challenge.
# [3] = tested on: pleural cavity of rats; assay: reverse passive Arthus reaction in the pleural cavity of rats; assay type: in vivo; conditions: po, rat pleural cavity RPAR
# From the text: Another procedure for testing for acute antiinflammatory activity measures the reverse passive Arthus reaction in the pleural cavity of rats as described in Myers et al., Inflammation, Vol. 9, No. 1, 1985, pp. 91-98.
inhibition of HETE production [1],inhibition of HHT production [1],inhibition of LTB4 production [1],SMILES,ED50 [2],ED50 [3]
~60%,about 40%,~60%,"O=c1c2c(c3cccnc3n1-c1ccccc1)N(c1ccccc1)CC2 [1,2,3,5-tetrahydro-1,5-diphenyl-4H-pyrrolo[3,2-c][1,8]napthyridin-4-one]",–,–
–,–,–,"O=c1c2c(c3cccnc3n1-c1ccccc1)NCC2 [1,2,3,5-tetrahydro-5-phenyl-4H-pyrrolo[3,2-c][I, 8]napthyridin-4-one]",~25 mg/kg,< 25 mg/kg
–,–,–,"CCOC(=O)N1CCc2c1c1cccnc1n(-c1ccccc1)c2=O [2,3,4,5-tetrahydro-4-oxo-5-phenyl-1H-pyrrolo[3,2-c][1,8]napthyridine-1-carboxylic acid, ethyl ester]",–,~25 mg/kg
